Patent US12102644B2, “Compounds and methods of promoting myelination” (Case Western Reserve University, priority 2019, dated 2024)
pEC50, pIC50: −log10 of the molar value. Entries after “also recorded” stand apart in the source; their conditions may differ. Values belong to the compound of their own block, whether it stands above or below them.

What was measured:
[1] = system: mouse epiblast stem cell-derived OPCs; experiment: In vitro OPC differentiation assay (percentage of MBP+ oligodendrocytes, high-content imaging); format: cell-based; conditions: for formation of MBP+ oligodendrocytes from OPCs / formation of MBP+ oligodendrocytes in combination with ketoconazole: 72 h; for formation of MBP+ oligodendrocytes from OPCs: differentiation-permissive conditions; for formation of MBP+ oligodendrocytes in combination with ketoconazole: co-treatment with ketoconazole 2.5 μM
Method: To rigorously assess effects of small molecule and genetic treatments on OPCs, all treatments were assayed in two batches of epiblast stem cell-derived OPCs, and key results were confirmed using mouse primary OPCs. OPCs were generated from two separate EpiSC lines, EpiSC5 (giving rise to OPC-5 OPCs) and 12901 (giving rise to OPC-1 OPCs). EpiSC-derived OPCs were obtained using in vitro differentiation protocols and culture conditions described previously. To ensure uniformity throughout all in vitro screening experiments, EpiSC-derived OPCs were sorted to purity by fluorescence activated cell sorting at passage five with conjugated CD 140a-APC (eBioscience, 17-1401; 1:80) and NG2-AF488 (Millipore, AB[…]; 1:100) antibodies. Sorted batches of OPCs were expanded and frozen down in aliquots. OPCs were thawed into growth conditions for one passage before use in further assays. Cultures were regularly tested and shown to be mycoplasma free. EpiSC-derived OPCs were grown and expanded in poly-ornithine (PO) and laminin-coated flasks with growth medium (DMEM/F12 supplemented with N2-MAX (R&D Systems), B-27 (ThermoFisher), GlutaMax (Gibco), FGF2 ([…], R&D systems, 233-FB-025) and PDGF-AA ([…], R&D systems, 233-AA-050) before harvesting for plating. The cells were seeded onto poly-D-[…]-well CellCarrier plates (PerkinElmer) coated with laminin (Sigma, L2020; 15 μg/ml) using multi-channel pipet. For the experiment, 800,000 cells/mL stock in differentiation medium (DMEM/F12 supplemented with N2-MAX and B-27) was prepared and stored on ice for 2 h. Then, 40,000 cells were seeded per well in differentiation medium and allowed to attach for 30 min before addition of drug. For dose-response testing of all molecules except sterols, a 1000× compound stock in dimethyl sulphoxide (DMSO) was added to assay plates with 0.1 μL solid pin multi-blot replicators (V & P Scientific; VP 409), resulting in a final primary screening concentration of 1×. Sterols were added to cells as an ethanol solution (0.2% final ethanol concentration). Positive control wells (ketoconazole, 2.5 μM) and DMSO vehicle controls were included in each assay plate. Cells were incubated under standard conditions (37° C., 5% CO2) for 3 days and fixed with 4% paraformaldehyde (PFA) in phosphate buffered saline (PBS) for 20 min. Fixed plates were washed with PBS (200 μL per well) twice, permeabilized with 0.1% Triton X-100 and blocked with 10% donkey serum (v/v) in PBS for 40 min. Then, cells were labelled with MBP antibodies (Abcam, ab7349; 1:200) for 16 h at 4° C. followed by detection with Alexa Fluor conjugated secondary antibodies (1:500) for 45 min. Nuclei were visualized by DAPI staining (Sigma; 1 μg/ml). During washing steps, PBS was added using a multi-channel pipet and aspiration was performed using Biotek EL406 washer dispenser (Biotek) equipped with a 96-well aspiration manifold. Plates were imaged on the Operetta High Content Imaging and Analysis system (PerkinElmer) and a set of 6 fields captured from each well resulting in an average of 1200 cells being scored per well. Analysis (PerkinElmer Harmony and Columbus software) began by identifying intact nuclei stained by DAPI; that is, those traced nuclei that were larger than 300 μm^2 in surface area. Each traced nucleus region was then expanded by 50% and cross-referenced with the […] (MBP) stain to identify oligodendrocyte nuclei, and from this the percentage of oligodendrocytes was calculated. In some experiments, the total process length of MBP^+ oligodendrocytes was calculated as previously described.

[2] = system: sterol levels in OPCs (cholesterol biosynthesis pathway); experiment: GC/MS-based sterol profiling in OPCs; format: cell-based, mouse; conditions: 24 h treatment
EBP = molecular target: T1, EBP (Mus musculus, UniProt P70245); experiment: EBP enzymatic assay (GC/MS); format: biochemical; conditions: small molecules 10 μM, zymostenol 25 μM, 2 h
T1 construct: active EBP was obtained from mouse microsomes; from tissue
T1 sequence (P70245 1-230): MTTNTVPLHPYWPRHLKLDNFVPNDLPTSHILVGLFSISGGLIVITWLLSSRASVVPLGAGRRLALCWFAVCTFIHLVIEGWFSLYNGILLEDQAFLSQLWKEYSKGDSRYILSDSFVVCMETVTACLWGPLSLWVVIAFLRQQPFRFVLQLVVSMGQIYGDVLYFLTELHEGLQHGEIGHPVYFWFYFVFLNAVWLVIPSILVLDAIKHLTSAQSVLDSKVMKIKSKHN

LPC-lesioned spinal cord [3] = experiment: LPC focal demyelination of spinal cord, remyelination histology; format: in vivo, mouse; conditions: ifenprodil 10 mg per kg or tamoxifen 2 mg per kg, daily i.p., 8 days from day 4 after lesion
[4] = system: human ERα, GR, LXRβ, NFkB, NRF2, PGR, PPARδ, PPARγ, RARα, RARγ, RXRα, RXRβ, TRα, TRβ, VDR, ERRα, RORα and RORγ; experiment: Luciferase reporter assays for 18 nuclear hormone receptors; format: cell-based; conditions: 2,2-Dimethylzymosterol 5 μM, Ketoconazole 2.5 μM, TASIN-1 250 nM
Method: FIGS. 6(A-D) illustrate images and graphs showing the effect of 8,9-unsaturated sterols on nuclear hormone receptors and SREBP2 activity: a) Luciferase reporter assays were used to assess if 2,2-Dimethylzymosterol (5 μM), Ketoconazole (2.5 μM), and TASIN-1 (250 nM) modulate human ERα, GR, LXRβ, NFkB, NRF2, PGR, PPARδ, PPARγ, RARα, RARγ, RXRα, RXRβ, TRα, TRβ and VDR transcriptional activity in agonist mode and ERRα, RORα and RORγ in inverse-agonist mode. Measurements are shown as percentage of positive control, n=2 replicates per condition and n=3 replicates per condition for the controls. b) Effects of sterols (T-MAS 5 μM, FF-MAS 10 μM) and small molecules (Ketoconazole 2.5 μM, TASIN-1 100 nM) on the NR2F1-mediated activation of a NGFI-A promoter driven luciferase reporter in comparison to cells containing the reporter only (Ctrl.) or untreated. n=2 replicates per condition, with triplicate measurements per replicate. c) Effects of 2,2-dimethylzymosterol (5 μM) on the NR2C2 mediated activation of a NGFI-A promoter driven luciferase reporter in comparison to cells infected with reporter only, untreated, or treated with a previously reported positive control (all-trans retinoic acid, ATRA, 5 μM). n=2 replicates per condition, with triplicate measurements per replicate. d) LSS, DHCR7, LDLR mRNA levels measured by RT-qPCR following 24 h treatment with DMSO, Mevastatin (2.5 μM), Ro 48-8071 (500 nM), Ketoconazole (2.5 μM), TASIN-1 (100 nM), or Amorolfine (100 nM). n=2 replicates, with triplicate qPCR measurements per replicate. Experiments in panels b-d are representative of two indpedendent experiments.

NR2C2 = experiment: NR2C2-mediated NGFI-A promoter luciferase reporter; format: cell-based; conditions: 2,2-dimethylzymosterol 5 μM
Method: (§1) FIGS. 6(A-D) illustrate images and graphs showing the effect of 8,9-unsaturated sterols on nuclear hormone receptors and SREBP2 activity: a) Luciferase reporter assays were used to assess if 2,2-Dimethylzymosterol (5 μM), Ketoconazole (2.5 μM), and TASIN-1 (250 nM) modulate human ERα, GR, LXRβ, NFkB, NRF2, PGR, PPARδ, PPARγ, RARα, RARγ, RXRα, RXRβ, TRα, TRβ and VDR transcriptional activity in agonist mode and ERRα, RORα and RORγ in inverse-agonist mode. […]

estrogen receptor = conditions: cited from earlier work
[5] = system: human induced pluripotent stem cell-derived cortical spheroids; experiment: Sterol profiling in human iPSC-derived cortical spheroids; format: cell-based
LPC-lesioned spinal cord [6] = conditions: previously established by the inventors; cited from earlier work
rat CYP51 = molecular target: T2, rat CYP51 (Rattus norvegicus, UniProt Q64654); experiment: biochemical
T2 sequence (Q64654 1-503): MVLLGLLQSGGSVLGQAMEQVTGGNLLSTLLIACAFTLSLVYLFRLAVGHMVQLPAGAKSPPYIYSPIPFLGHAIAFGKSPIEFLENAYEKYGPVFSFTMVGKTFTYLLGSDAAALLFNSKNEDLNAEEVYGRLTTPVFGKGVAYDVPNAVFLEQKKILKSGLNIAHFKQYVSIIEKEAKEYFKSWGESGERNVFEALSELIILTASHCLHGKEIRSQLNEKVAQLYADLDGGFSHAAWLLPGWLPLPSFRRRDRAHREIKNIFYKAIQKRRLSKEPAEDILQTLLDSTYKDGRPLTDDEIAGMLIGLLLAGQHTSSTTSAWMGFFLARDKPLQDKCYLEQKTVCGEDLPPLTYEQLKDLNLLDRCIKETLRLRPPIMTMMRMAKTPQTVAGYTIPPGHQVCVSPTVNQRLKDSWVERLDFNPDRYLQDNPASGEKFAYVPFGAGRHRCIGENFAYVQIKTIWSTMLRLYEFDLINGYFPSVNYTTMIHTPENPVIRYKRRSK

[7] = system: EpiSC-derived OPCs on microfibers; experiment: Oligodendrocyte formation on electrospun microfibers; format: cell-based, mouse; conditions: 14 days
Method: A 12-well plate containing Mimetex aligned scaffold (microfiber plate, AMSBIO, AMS.TECL-006-1X, Electrospun poly-L-lactide Scaffold, […] cell crown inserts) was prepared as previously described. Briefly, inserts were sterilized with 70% ethanol and washed with PBS before being coated with polyornithine and laminin. After laminin coating, 100,000 cells/mL of EpiSC-derived OPCs were plated in differentiation medium. After 24 h the media was replaced with fresh media containing small molecule treatments. Every 48 h the media was replaced with fresh compound containing media for a total of 14 days. Plates were fixed with 4% PFA, permeabilized with 0.1% Triton X-100, and blocked with 10% donkey serum (v/v) in PBS for 60 min. Plates were stained for MBP (Abcam, ab7349; 1:100) and DAPI staining (Sigma; 5 μg/ml). After staining, the inserts were moved into new 12-well plate and covered with 2 mL of PBS before imaging in Operetta high content Imaging and analysis system. Plates were imaged on the Operetta High Content Imaging and Analysis system (PerkinElmer) and a set of 8 fields captured from each well resulting in an average of 45,000 cells being scored per well. Analysis (PerkinElmer Harmony and Columbus software) identified intact nuclei stained by DAPI and calculated the MBP signal intensity per cell per well. Microfiber insert tracking images were taken using a Leica DMi8 with a 20× Dry/NA 0.40 objective. Microfiber plate inserts were mounted using Flouromount-G (SouthernBiotech) and allowed to partially harden before coverslips were added and the insert ring was removed. Confocal images were obtained on a Leica SP8 confocal scanning microscope, with 40× oil/NA 1.30 objective. Confocal stacks of 0.336 μm z-steps were taken at 1024×1024. Each fluorophore was excited sequentially and all contrast and brightness changes were applied consistently between images.

NR2F1 = experiment: NR2F1-mediated NGFI-A promoter luciferase reporter; format: cell-based; conditions: Ketoconazole 2.5 μM, TASIN-1 100 nM
Method: as §1

Compound: CC/C(=C(\c1ccccc1)c1ccc(OCCN(C)C)cc1)c1ccccc1 [tamoxifen, Tamoxifen]
- formation of MBP+ oligodendrocytes from OPCs [1]: enhance the formation of oligodendrocytes with comparable potency
- formation of MBP+ oligodendrocytes in combination with ketoconazole [1]: did not enhance differentiation above levels seen for ketoconazole alone
- accumulation of sterol intermediates in OPCs (enzyme inhibition in OPCs, e.g. EBP) [2]: induced accumulation of zymostenol and zymosterol and decreased basal sterol levels; also recorded: inhibit EBP in OPCs
- inhibition of EBP enzymatic activity (EBP): clear inhibition
- remyelination of LPC lesion (LPC-lesioned spinal cord [3]): remyelination was widespread throughout the lesion

- pEC50 ([1]; OPC-5 and OPC-1, 72 h, read-out: EC50 for enhancing oligodendrocyte formation): 5.70 to 6.00
- NR2C2-mediated reporter activation (NR2C2): ineffective
Compound: CC(C)=CCC[C@@H](C)[C@H]1CC[C@H]2C3=C(CC[C@]12C)[C@@]1(C)CC(C)(C)[C@H](O)C[C@@H]1CC3 [2,2-dimethylzymosterol]
- formation of MBP+ oligodendrocytes from OPCs [1]: maximally potent enhancers of oligodendrocyte formation among the 8,9-unsaturated sterols tested
- formation of MBP+ oligodendrocytes in combination with ketoconazole [1]: no further benefit over ketoconazole alone
- agonist activity in NHR reporter assays [4]: no molecule showed significant agonist activity in any assay

- accumulation of sterol intermediates in OPCs (enzyme inhibition in OPCs, e.g. EBP) [2]: inhibit EBP in OPCs
Compound: 4-hydroxytamoxifen
- formation of MBP+ oligodendrocytes from OPCs [1]: enhance the formation of oligodendrocytes with comparable potency
- potency as estrogen receptor modulator relative to tamoxifen (estrogen receptor): 100 fold

- pIC50 (rat CYP51): 6.15 to 6.52
Compound: Clc1ccc(COC(Cn2ccnc2)c2ccc(Cl)cc2Cl)c(Cl)c1 (stereo not shown) [miconazole, Miconazole]
- 8,9-unsaturated sterol accumulation in human cortical spheroids [5]: led to 8,9-unsaturated sterol accumulation
- remyelination in mouse models of demyelination (earlier work) (LPC-lesioned spinal cord [6]): enhances remyelination in mouse models of demyelination

Compound: CCC(C)(C)c1ccc(CC(C)CN2C[C@@H](C)O[C@@H](C)C2)cc1 (stereo partly shown) [amorolfine, Amorolfine]
- formation of MBP+ oligodendrocytes from OPCs [1]: enhanced formation of MBP^+ oligodendrocytes
- MBP+ oligodendrocyte tracking along and wrapping of microfibers [7]: significantly enhanced MBP+ oligodendrocyte tracking along and wrapping of the microfibers

- NR2F1-mediated reporter activation (NR2F1): ineffective
- pIC50 (rat CYP51): 6.15 to 6.52
Compound: CC(=O)N1CCN(c2ccc(OCC3COC(Cn4ccnc4)(c4ccc(Cl)cc4Cl)O3)cc2)CC1 (stereo not shown) [ketoconazole, Ketoconazole]
- formation of MBP+ oligodendrocytes from OPCs [1]: enhanced formation of MBP^+ oligodendrocytes
- agonist activity in NHR reporter assays [4]: no molecule showed significant agonist activity in any assay
- MBP+ oligodendrocyte tracking along and wrapping of microfibers [7]: significantly enhanced MBP+ oligodendrocyte tracking along and wrapping of the microfibers

- inhibition of EBP enzymatic activity (EBP): clear inhibition
- NR2F1-mediated reporter activation (NR2F1): ineffective
Compound: COc1ccc(S(=O)(=O)N2CCC(N3CCC(C)CC3)CC2)cc1 [TASIN-1]
- formation of MBP+ oligodendrocytes from OPCs [1]: enhanced formation of MBP^+ oligodendrocytes
- agonist activity in NHR reporter assays [4]: no molecule showed significant agonist activity in any assay
- MBP+ oligodendrocyte tracking along and wrapping of microfibers [7]: significantly enhanced MBP+ oligodendrocyte tracking along and wrapping of the microfibers
